# Data published in patent US10918651B2, “Method for lowering thyrotropin levels in adults” (University of Louisiana at Lafayette, priority 2016, dated 2021).
# Tests used:
# dopamine receptors = settings: chronic administration, aging mice; cited from earlier work
# [1] = in vivo; cited from earlier work
# [2] = test system: thyroid stimulating hormone (TSH)
# Description: A study was performed of this invention using forty-eight male college-aged volunteers. The participants were divided into 4 groups of 12 subjects. The groups reported to the lab after an overnight fast and were then administered the following: 200 mg of Caffeine, 250 mg of A-GPC, 500 mg of A-GPC or placebo. One hour and two hours post administration blood was drawn from a vein in the antecubital space into a serum separator tube, this was allowed to stand for 15 minutes, then centrifuged and the serum drawn off and frozen at −35 degrees Celsius for later evaluation.
# At the conclusion of data collection, the serum aliquots were thawed and a commercially available high-sensitivity ELISA was uses to quantify TSH levels (Eagle Biosciences TSH Ultrasensitive ELISA kit). Samples were tested in duplicate with inter and intra place CV % of less than 10. A repeated measures Anova was used to assess TSH level by group.
SMILES,dopamine receptors in the brain (dopamine receptors),crossing the blood brain barrier [1],incorporation into brain phospholipids after administration [1],"TSH blood levels (effect) ([2]; 250 mg A-GPC, single administration)","TSH level, group average ([2]; 500 mg A-GPC group, 12 males)","number of males exhibiting TSH levels lower than 2.0 ([2]; 500 mg A-GPC group, 12 males)"
C[N+](C)(C)CCOP(=O)(O)OP(=O)([O-])OC[C@H]1O[C@@H](n2ccc(N)nc2=O)[C@H](O)[C@@H]1O [CDP-choline],increase dopamine receptors in the brain,,,,,
"C[N+](C)(C)CCOP(=O)([O-])OC[C@H](O)CO [A-GPC, Alpha Glycerylphosphoryl Choline]",,capable of crossing the blood brain barrier,incorporated into brain phospholipids within twenty-four hours,insufficient to reduce blood TSH,2.3,5 of the 12
